Source: PMC10191551, “Safety, Tolerability, and Pharmacokinetics of Oral Ferric Maltol in Children With Iron Deficiency: Phase 1 Study” (JPGN Reports, 2021)

Tests used:
[1] = Phase 1 study: iron uptake (serum iron and TSAT) after oral ferric maltol; type: in vivo, children; settings: 7.8, 16.6, 30 mg b.d.
Excerpt: Serum iron and TSAT provided measures of iron uptake.

[2] = cited from earlier work
[3] = design: method as in PMID 34029682; settings: patients with CKD, over 16 weeks; ref [35]; cited from earlier work
[4] = Phase 1 study: safety and tolerability (adverse events, vital signs, ECG, laboratory tests, compliance) of oral ferric maltol; settings: for Patients With an AE: Any AE: safety population
Excerpt: This phase 1, randomized, open-label, parallel-group pharmacokinetic study involved children seen as outpatients at 6 centers in the UK: Alder Hey Children’s NHS Foundation Trust; King’s College Hospital NHS Foundation Trust; University Hospitals of Leicester NHS Trust; Nottingham University Hospitals NHS Trust; Manchester University NHS Foundation Trust; and University College London Hospitals NHS Foundation Trust. […] Children aged 16 years or older and parents or guardians of children younger than 16 years provided written informed consent to participate before study initiation.
Children aged 10–17 years with confirmed iron deficiency at screening (defined as either ferritin <30 µg/L or ferritin <50 µg/L with transferrin saturation [TSAT] <20%) were eligible for inclusion in the study. Patients with or without anemia could be enrolled, provided hemoglobin was ≥8.5 g/dL at screening. Girls of childbearing potential had to agree to use adequate contraception during and until 4 weeks after the end of the study.
The study comprised a screening period followed by a 10-day randomized treatment period and a post-treatment safety follow-up. Children were randomized 1:1:1 (stratified by age [10–14 vs 15–17 years] and sex) to ferric maltol 7.8 mg, 16.6 mg, or 30 mg twice daily (b.d.) for 9 days and once in the morning of day 10. The first and last doses of ferric maltol were taken in the presence of the investigator. Children took each dose with a glass of water 1 hour before or 2 hours after a meal. Doses were based on daily elemental iron requirements for the broad range of body weights of participants likely to be enrolled, with the aim of finding a minimum effective dose in this age group. The 30 mg b.d. adult dosage was chosen as the highest exposure; dosages of 16.6 mg b.d. and 7.8 mg b.d. were chosen as approximately one-half and one-quarter of the adult dose, respectively, with the exact dose depending on the full fill of available capsule shell sizes.
The primary objectives were to assess iron uptake and ferric maltol pharmacokinetics. Serum iron and TSAT provided measures of iron uptake. In adults, dissociated maltol undergoes rapid glucuronidation and is cleared in urine as maltol glucuronide (36); therefore, in this study, plasma maltol glucuronide was measured to confirm the rate of clearance in children. The secondary objective was to assess the safety and tolerability of ferric maltol in terms of vital signs, AEs, concomitant medications, 12-lead electrocardiograms, and clinical laboratory blood tests.
Safety analyses were conducted in all patients who received at least 1 dose of the study medication and had at least 1 subsequent visit (the safety population). […] Clinically significant changes from baseline in vital signs, physical examination, and routine clinical laboratory abnormalities were also recorded.

Cc1occc(=O)c1[O-].Cc1occc(=O)c1[O-].Cc1occc(=O)c1[O-].[Fe+3] [Ferric maltol]
Dose dependence of changes in serum iron concentrations [1]: not dose-dependent | Iron uptake (serum iron and TSAT) ([1]; days 1 and 10, ITT population): increased iron uptake | Hemoglobin concentrations versus placebo ([2]; patients with IBD, over 12 weeks, ref [19]): significantly increased hemoglobin concentrations compared with placebo | Incidence of gastrointestinal TEAEs ([2]; phase 3 trial in adults with IBD, ref [19],[20]): 38% | Hemoglobin and iron indices [3]: statistical and clinically significant increases in hemoglobin and iron indices | Patients With an AE: Any SAE ([4]; 7.8 mg b.d. (n = 12)): 0 (0.0) n (%) | Patients With an AE: Any TEAE ([4]; 7.8 mg b.d. (n = 12)): 7 (58.3) n (%) | Patients With an AE: TEAE leading to study discontinuation ([4]; 7.8 mg b.d. (n = 12)): 0 (0.0) n (%) | Patients With an AE: TEAE related to study drug ([4]; 7.8 mg b.d. (n = 12)): 3 (25.0) n (%) | Patients with a TEAE: Abdominal distension ([4]; 7.8 mg b.d. (n = 12)): 0 (0.0) n (%) | Patients with a TEAE: Abdominal pain ([4]; 7.8 mg b.d. (n = 12)): 0 (0.0) n (%) | Patients with a TEAE: Anal incontinence ([4]; 7.8 mg b.d. (n = 12)): 0 (0.0) n (%) | Patients with a TEAE: Cellulitis ([4]; 7.8 mg b.d. (n = 12)): 1 (8.3) n (%) | Patients with a TEAE: Constipation ([4]; 7.8 mg b.d. (n = 12)): 0 (0.0) n (%) | Patients with a TEAE: Cough ([4]; 7.8 mg b.d. (n = 12)): 1 (8.3) n (%) | Patients with a TEAE: Diarrhea ([4]; 7.8 mg b.d. (n = 12)): 2 (16.7) n (%) | Patients with a TEAE: Dizziness ([4]; 7.8 mg b.d. (n = 12)): 0 (0.0) n (%) | Patients with a TEAE: Dyspepsia ([4]; 7.8 mg b.d. (n = 12)): 0 (0.0) n (%) | Patients with a TEAE: Dyspnea ([4]; 7.8 mg b.d. (n = 12)): 1 (8.3) n (%) | Patients with a TEAE: Fatigue ([4]; 7.8 mg b.d. (n = 12)): 1 (8.3) n (%) | Patients with a TEAE: Nausea ([4]; 7.8 mg b.d. (n = 12)): 1 (8.3) n (%) | Patients with a TEAE: Nevus hemorrhage ([4]; 7.8 mg b.d. (n = 12)): 1 (8.3) n (%) | Patients with a TEAE: Palpitations ([4]; 7.8 mg b.d. (n = 12)): 1 (8.3) n (%) | Patients with a TEAE: Papule ([4]; 7.8 mg b.d. (n = 12)): 0 (0.0) n (%) | Patients with a TEAE: Pyrexia ([4]; 7.8 mg b.d. (n = 12)): 0 (0.0) n (%) | Patients with a TEAE: Skin abrasion ([4]; 7.8 mg b.d. (n = 12)): 0 (0.0) n (%) | Patients with a TEAE: Sneezing ([4]; 7.8 mg b.d. (n = 12)): 1 (8.3) n (%) | Patients with a TEAE: Tonsillitis ([4]; 7.8 mg b.d. (n = 12)): 0 (0.0) n (%) | Patients with a TEAE: Vomiting ([4]; 7.8 mg b.d. (n = 12)): 1 (8.3) n (%) | TEAEs by system organ class: Cardiac disorders ([4]; 7.8 mg b.d. (n = 12)): 1 (8.3) n (%) | TEAEs by system organ class: Gastrointestinal disorders ([4]; 7.8 mg b.d. (n = 12)): 4 (33.3) n (%) | TEAEs by system organ class: General disorders and administration-site conditions ([4]; 7.8 mg b.d. (n = 12)): 1 (8.3) n (%) | TEAEs by system organ class: Injury, poisoning, and procedural complications ([4]; 7.8 mg b.d. (n = 12)): 0 (0.0) n (%) | TEAEs by system organ class: Neoplasms benign, malignant, and unspecified ([4]; 7.8 mg b.d. (n = 12)): 1 (8.3) n (%) | TEAEs by system organ class: Nervous system disorders ([4]; 7.8 mg b.d. (n = 12)): 1 (8.3) n (%) | TEAEs by system organ class: Respiratory, thoracic, and mediastinal disorders ([4]; 7.8 mg b.d. (n = 12)): 3 (25.0) n (%) | TEAEs by system organ class: Skin and subcutaneous-tissue disorders ([4]; 7.8 mg b.d. (n = 12)): 1 (8.3) n (%) | Patients With an AE: Any AE ([4]; 7.8 mg b.d. (n = 12)): 7 (58.3) n (%) | Patients With an AE: Any SAE ([4]; 16.6 mg b.d. (n = 13)): 0 (0.0) n (%) | Patients With an AE: Any TEAE ([4]; 16.6 mg b.d. (n = 13)): 6 (46.2) n (%) | Patients With an AE: TEAE leading to study discontinuation ([4]; 16.6 mg b.d. (n = 13)): 1 (7.7) n (%) | Patients With an AE: TEAE related to study drug ([4]; 16.6 mg b.d. (n = 13)): 1 (7.7) n (%) | Patients with a TEAE: Abdominal distension ([4]; 16.6 mg b.d. (n = 13)): 0 (0.0) n (%) | Patients with a TEAE: Abdominal pain ([4]; 16.6 mg b.d. (n = 13)): 0 (0.0) n (%) | Patients with a TEAE: Anal incontinence ([4]; 16.6 mg b.d. (n = 13)): 0 (0.0) n (%) | Patients with a TEAE: Cellulitis ([4]; 16.6 mg b.d. (n = 13)): 0 (0.0) n (%) | Patients with a TEAE: Constipation ([4]; 16.6 mg b.d. (n = 13)): 0 (0.0) n (%) | Patients with a TEAE: Cough ([4]; 16.6 mg b.d. (n = 13)): 0 (0.0) n (%) | Patients with a TEAE: Diarrhea ([4]; 16.6 mg b.d. (n = 13)): 0 (0.0) n (%) | Patients with a TEAE: Dizziness ([4]; 16.6 mg b.d. (n = 13)): 1 (7.7) n (%) | Patients with a TEAE: Dyspepsia ([4]; 16.6 mg b.d. (n = 13)): 0 (0.0) n (%) | Patients with a TEAE: Dyspnea ([4]; 16.6 mg b.d. (n = 13)): 0 (0.0) n (%) | Patients with a TEAE: Fatigue ([4]; 16.6 mg b.d. (n = 13)): 1 (7.7) n (%) | Patients with a TEAE: Nausea ([4]; 16.6 mg b.d. (n = 13)): 0 (0.0) n (%) | Patients with a TEAE: Nevus hemorrhage ([4]; 16.6 mg b.d. (n = 13)): 0 (0.0) n (%) | Patients with a TEAE: Palpitations ([4]; 16.6 mg b.d. (n = 13)): 0 (0.0) n (%) | Patients with a TEAE: Papule ([4]; 16.6 mg b.d. (n = 13)): 0 (0.0) n (%) | Patients with a TEAE: Pyrexia ([4]; 16.6 mg b.d. (n = 13)): 0 (0.0) n (%) | Patients with a TEAE: Skin abrasion ([4]; 16.6 mg b.d. (n = 13)): 1 (7.7) n (%) | Patients with a TEAE: Sneezing ([4]; 16.6 mg b.d. (n = 13)): 0 (0.0) n (%) | Patients with a TEAE: Tonsillitis ([4]; 16.6 mg b.d. (n = 13)): 1 (7.7) n (%) | Patients with a TEAE: Vomiting ([4]; 16.6 mg b.d. (n = 13)): 1 (7.7) n (%) | TEAEs by system organ class: Cardiac disorders ([4]; 16.6 mg b.d. (n = 13)): 0 (0.0) n (%) | TEAEs by system organ class: Gastrointestinal disorders ([4]; 16.6 mg b.d. (n = 13)): 2 (15.4) n (%) | TEAEs by system organ class: General disorders and administration-site conditions ([4]; 16.6 mg b.d. (n = 13)): 2 (15.4) n (%) | TEAEs by system organ class: Injury, poisoning, and procedural complications ([4]; 16.6 mg b.d. (n = 13)): 1 (7.7) n (%) | TEAEs by system organ class: Neoplasms benign, malignant, and unspecified ([4]; 16.6 mg b.d. (n = 13)): 0 (0.0) n (%) | TEAEs by system organ class: Nervous system disorders ([4]; 16.6 mg b.d. (n = 13)): 3 (23.1) n (%) | TEAEs by system organ class: Respiratory, thoracic, and mediastinal disorders ([4]; 16.6 mg b.d. (n = 13)): 0 (0.0) n (%) | TEAEs by system organ class: Skin and subcutaneous-tissue disorders ([4]; 16.6 mg b.d. (n = 13)): 0 (0.0) n (%) | Patients With an AE: Any AE ([4]; 16.6 mg b.d. (n = 13)): 7 (53.8) n (%) | Children who discontinued the study early because of a TEAE ([4]; 16.6 mg group, moderate tonsillitis, not related to study drug): 1 | Patients With an AE: Any SAE ([4]; 30 mg b.d. (n = 12)): 0 (0.0) n (%) | Patients With an AE: Any TEAE ([4]; 30 mg b.d. (n = 12)): 7 (58.3) n (%) | Patients With an AE: TEAE leading to study discontinuation ([4]; 30 mg b.d. (n = 12)): 0 (0.0) n (%) | Patients With an AE: TEAE related to study drug ([4]; 30 mg b.d. (n = 12)): 5 (41.7) n (%) | Patients with a TEAE: Abdominal distension ([4]; 30 mg b.d. (n = 12)): 1 (8.3) n (%) | Patients with a TEAE: Abdominal pain ([4]; 30 mg b.d. (n = 12)): 1 (8.3) n (%) | Patients with a TEAE: Anal incontinence ([4]; 30 mg b.d. (n = 12)): 1 (8.3) n (%) | Patients with a TEAE: Cellulitis ([4]; 30 mg b.d. (n = 12)): 0 (0.0) n (%) | Patients with a TEAE: Constipation ([4]; 30 mg b.d. (n = 12)): 1 (8.3) n (%) | Patients with a TEAE: Cough ([4]; 30 mg b.d. (n = 12)): 1 (8.3) n (%) | Patients with a TEAE: Diarrhea ([4]; 30 mg b.d. (n = 12)): 1 (8.3) n (%) | Patients with a TEAE: Dizziness ([4]; 30 mg b.d. (n = 12)): 2 (16.7) n (%) | Patients with a TEAE: Dyspepsia ([4]; 30 mg b.d. (n = 12)): 1 (8.3) n (%) | Patients with a TEAE: Dyspnea ([4]; 30 mg b.d. (n = 12)): 0 (0.0) n (%) | Patients with a TEAE: Fatigue ([4]; 30 mg b.d. (n = 12)): 2 (16.7) n (%) | Patients with a TEAE: Nausea ([4]; 30 mg b.d. (n = 12)): 1 (8.3) n (%) | Patients with a TEAE: Nevus hemorrhage ([4]; 30 mg b.d. (n = 12)): 0 (0.0) n (%) | Patients with a TEAE: Palpitations ([4]; 30 mg b.d. (n = 12)): 0 (0.0) n (%)
